Data published in patent US20210045385A1, “PYRIDAZINONE-SUBSTITUTED KETOXIMES AS HERBICIDES” (FMC Corporation, priority 2018, published 2021).

Legend:
Format in all cases: in vivo
[1] = system: Italian ryegrass (Lolium mutiflorum); experiment: Test C preemergence, visual plant response rating; conditions: Test C, 0 is no effect, 100 is complete control
In short: (§1)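 Seeds sown in a loam–sand blend got a directed preemergence soil spray; postemergence plants (2–10 cm, one- to two-leaf stage) were sprayed with compound in a non-phytotoxic solvent plus surfactant. Injury was scored visually against untreated controls after about 10 d in a greenhouse on a 0–100 scale (100 = complete control).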

[2] = system: barnyardgrass (Echinochloa crus-galli); experiment: Test C preemergence, visual plant response rating; conditions: Test C, 0 is no effect, 100 is complete control
In short: as §1

[3] = system: foxtail, giant (giant foxtail, Setaria faberi); experiment: Test C preemergence, visual plant response rating; conditions: Test C, 0 is no effect, 100 is complete control
In short: as §1

kochia (Bassia scoparia) [4] = experiment: Test C preemergence, visual plant response rating; conditions: Test C, 0 is no effect, 100 is complete control
In short: as §1

[5] = system: ragweed (common ragweed, Ambrosia artemisiifolia); experiment: Test C preemergence, visual plant response rating; conditions: Test C, 0 is no effect, 100 is complete control
In short: as §1

[6] = system: pigweed (Amaranthus retroflexus); experiment: Test C preemergence, visual plant response rating; conditions: Test C, 0 is no effect, 100 is complete control
In short: as §1

rice (Oryza sativa) = experiment: Test D flooded paddy test, visual plant response rating; conditions: 250 g ai/ha, scale 0 to 100 (0 no effect, 100 complete control), 13 to 15 d
In short: (§2)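 Plants grown to the 2-leaf stage; pots flooded to 3 cm above soil and compound applied directly into paddy water, depth held throughout. Kept in greenhouse 13 to 15 d, then rated visually against untreated controls on a 0–100 scale (0 no effect, 100 complete control).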

[7] = system: duck salad (Heteranthera limosa); experiment: as above; conditions: 250 g ai/ha, scale 0 to 100 (0 no effect, 100 complete control), 13 to 15 d
In short: as §2

[8] = system: barnyardgrass (Echinochloa crus-galli); experiment: as above; conditions: 250 g ai/ha, scale 0 to 100 (0 no effect, 100 complete control), 13 to 15 d
In short: as §2

[9] = system: sedge umbrella (small-flower umbrella sedge, Cyperus difformis); experiment: as above; conditions: 250 g ai/ha, scale 0 to 100 (0 no effect, 100 complete control), 13 to 15 d
In short: as §2

[10] = system: Italian ryegrass (Lolium mutiflorum); experiment: Test C postemergence, visual plant response rating
In short: as §1

[11] = system: barnyardgrass (Echinochloa crus-galli); experiment: Test C postemergence, visual plant response rating
In short: as §1

[12] = system: galium (catchweed bedstraw, Galium aparine); experiment: Test C postemergence, visual plant response rating
In short: as §1

[13] = system: foxtail, giant (giant foxtail, Setaria faberi); experiment: Test C postemergence, visual plant response rating
In short: as §1

kochia (Bassia scoparia) [14] = experiment: Test C postemergence, visual plant response rating
In short: as §1

[15] = system: blackgrass (Alopecurus myosuroides); experiment: Test C postemergence, visual plant response rating
In short: as §1

[16] = system: ragweed (common ragweed, Ambrosia artemisiifolia); experiment: Test C postemergence, visual plant response rating
In short: as §1

[17] = system: pigweed (Amaranthus retroflexus); experiment: Test C postemergence, visual plant response rating
In short: as §1

[18] = system: wheat (Triticum aestivum); experiment: Test C postemergence, visual plant response rating
In short: as §1

corn (Zea mays) = experiment: Test C postemergence, visual plant response rating
In short: as §1

[19] = Test C, postemergence, 125 g ai/ha

| Compound | Ryegrass, Italian plant response rating (0 to 100 scale) ([1]; 31 g ai/ha) | Ryegrass, Italian plant response rating (0 to 100 scale) ([1]; 125 g ai/ha) | Barnyardgrass plant response rating (0 to 100 scale) ([2]; 31 g ai/ha) | Barnyardgrass plant response rating (0 to 100 scale) ([2]; 125 g ai/ha) | Foxtail, Giant plant response rating (0 to 100 scale) ([3]; 31 g ai/ha) | Foxtail, Giant plant response rating (0 to 100 scale) ([3]; 125 g ai/ha) | Kochia plant response rating (0 to 100 scale) (kochia (Bassia scoparia) [4]; 31 g ai/ha) | Kochia plant response rating (0 to 100 scale) (kochia (Bassia scoparia) [4]; 125 g ai/ha) | Ragweed plant response rating (0 to 100 scale) ([5]; 31 g ai/ha) | Ragweed plant response rating (0 to 100 scale) ([5]; 125 g ai/ha) | Pigweed plant response rating (0 to 100 scale) ([6]; 31 g ai/ha) | Pigweed plant response rating (0 to 100 scale) ([6]; 125 g ai/ha) | Plant response rating, Rice (Flood) (rice (Oryza sativa)) | Plant response rating, Ducksalad (Flood) [7] | Plant response rating, Barnyardgrass (Flood) [8] | Plant response rating, Sedge, Umbrella (Flood) [9] | Ryegrass, Italian plant response rating (0 to 100 scale) ([10]; Postemergence, 31 g ai/ha) | Ryegrass, Italian plant response rating (0 to 100 scale) [10, 19] | Barnyardgrass plant response rating (0 to 100 scale) ([11]; Postemergence, 31 g ai/ha) | Barnyardgrass plant response rating (0 to 100 scale) [11, 19] | further results |
| --- | --- | --- | --- | --- | --- | --- | --- | --- | --- | --- | --- | --- | --- | --- | --- | --- | --- | --- | --- | --- | --- |
| C=CCO/N=C(/c1c(O)c(C)nn(C)c1=O)c1cccc2cc(Cl)ccc12 [Compound 246] | 30 | 60 | 60 | 80 | 80 | 80 | 0 | 0 | 100 | 90 | 90 | 100 | 90 | 95 | 90 | 100 | 0 | 30 | 40 | 70 | Galium plant response rating (0 to 100 scale) ([12]; Postemergence, 31 g ai/ha): 80; Galium plant response rating (0 to 100 scale) [12, 19]: 90; Foxtail, Giant plant response rating (0 to 100 scale) ([13]; Postemergence, 31 g ai/ha): 70; Foxtail, Giant plant response rating (0 to 100 scale) [13, 19]: 70; Kochia plant response rating (0 to 100 scale) (kochia (Bassia scoparia) [14]; Postemergence, 31 g ai/ha): 0; Kochia plant response rating (0 to 100 scale) (kochia (Bassia scoparia) [14]; [19]): 20; Blackgrass plant response rating (0 to 100 scale) ([15]; Postemergence, 31 g ai/ha): 50; Blackgrass plant response rating (0 to 100 scale) [15, 19]: 70; Ragweed plant response rating (0 to 100 scale) ([16]; Postemergence, 31 g ai/ha): 80; Ragweed plant response rating (0 to 100 scale) [16, 19]: 100; Pigweed plant response rating (0 to 100 scale) ([17]; Postemergence, 31 g ai/ha): 70; Pigweed plant response rating (0 to 100 scale) [17, 19]: 80; Wheat plant response rating (0 to 100 scale) ([18]; Postemergence, 31 g ai/ha): 0; Wheat plant response rating (0 to 100 scale) [18, 19]: 0; Corn plant response rating (0 to 100 scale) (corn (Zea mays); Postemergence, 31 g ai/ha): 20; Corn plant response rating (0 to 100 scale) (corn (Zea mays); [19]): 10 |
| C#CCO/N=C(/c1cccc(/C=C/Cl)c1)c1c(O)c(C)nn(C)c1=O [Compound 253] | 0 | 30 | 0 | 0 | 0 | 10 | 0 | 0 | 0 | 0 | 0 | 80 | 0 | 0 | 0 | 0 | 10 | 60 | 10 | 40 | Galium plant response rating (0 to 100 scale) ([12]; Postemergence, 31 g ai/ha): 30; Galium plant response rating (0 to 100 scale) [12, 19]: 50; Foxtail, Giant plant response rating (0 to 100 scale) ([13]; Postemergence, 31 g ai/ha): 20; Foxtail, Giant plant response rating (0 to 100 scale) [13, 19]: 50; Kochia plant response rating (0 to 100 scale) (kochia (Bassia scoparia) [14]; Postemergence, 31 g ai/ha): 20; Kochia plant response rating (0 to 100 scale) (kochia (Bassia scoparia) [14]; [19]): 60; Blackgrass plant response rating (0 to 100 scale) ([15]; Postemergence, 31 g ai/ha): 20; Blackgrass plant response rating (0 to 100 scale) [15, 19]: 60; Ragweed plant response rating (0 to 100 scale) ([16]; Postemergence, 31 g ai/ha): 30; Ragweed plant response rating (0 to 100 scale) [16, 19]: 40; Pigweed plant response rating (0 to 100 scale) ([17]; Postemergence, 31 g ai/ha): 50; Pigweed plant response rating (0 to 100 scale) [17, 19]: 70; Wheat plant response rating (0 to 100 scale) ([18]; Postemergence, 31 g ai/ha): 0; Wheat plant response rating (0 to 100 scale) [18, 19]: 30; Corn plant response rating (0 to 100 scale) (corn (Zea mays); Postemergence, 31 g ai/ha): 0; Corn plant response rating (0 to 100 scale) (corn (Zea mays); [19]): 0 |
| C#CCO/N=C(\c1cccc(/C=C/Cl)c1)c1c(O)c(C)nn(C)c1=O [Compound 254] | 20 | 60 | 0 | 0 | 0 | 40 | 0 | 0 | 40 | 90 | 0 | 10 | 0 | 0 | 0 | 0 | 20 | 70 | 30 | 50 | Galium plant response rating (0 to 100 scale) ([12]; Postemergence, 31 g ai/ha): 0; Galium plant response rating (0 to 100 scale) [12, 19]: 40; Foxtail, Giant plant response rating (0 to 100 scale) ([13]; Postemergence, 31 g ai/ha): 20; Foxtail, Giant plant response rating (0 to 100 scale) [13, 19]: 60; Kochia plant response rating (0 to 100 scale) (kochia (Bassia scoparia) [14]; Postemergence, 31 g ai/ha): 50; Kochia plant response rating (0 to 100 scale) (kochia (Bassia scoparia) [14]; [19]): 70; Blackgrass plant response rating (0 to 100 scale) ([15]; Postemergence, 31 g ai/ha): 10; Blackgrass plant response rating (0 to 100 scale) [15, 19]: 70; Ragweed plant response rating (0 to 100 scale) ([16]; Postemergence, 31 g ai/ha): 30; Ragweed plant response rating (0 to 100 scale) [16, 19]: 50; Pigweed plant response rating (0 to 100 scale) ([17]; Postemergence, 31 g ai/ha): 20; Pigweed plant response rating (0 to 100 scale) [17, 19]: 70; Wheat plant response rating (0 to 100 scale) ([18]; Postemergence, 31 g ai/ha): 30; Wheat plant response rating (0 to 100 scale) [18, 19]: 60; Corn plant response rating (0 to 100 scale) (corn (Zea mays); Postemergence, 31 g ai/ha): 0; Corn plant response rating (0 to 100 scale) (corn (Zea mays); [19]): 10 |
| C#CCO/N=C(/c1cccc(/C=C\Cl)c1)c1c(O)c(C)nn(C)c1=O [Compound 261] | 0 | 70 | 0 | 0 | 0 | 10 | 0 | 0 | 0 | 10 | 0 | 10 | 0 | 0 | 0 | 0 | 0 | 60 | 20 | 40 | Galium plant response rating (0 to 100 scale) ([12]; Postemergence, 31 g ai/ha): 40; Galium plant response rating (0 to 100 scale) [12, 19]: 80; Foxtail, Giant plant response rating (0 to 100 scale) ([13]; Postemergence, 31 g ai/ha): 10; Foxtail, Giant plant response rating (0 to 100 scale) [13, 19]: 50; Kochia plant response rating (0 to 100 scale) (kochia (Bassia scoparia) [14]; Postemergence, 31 g ai/ha): 30; Kochia plant response rating (0 to 100 scale) (kochia (Bassia scoparia) [14]; [19]): 60; Blackgrass plant response rating (0 to 100 scale) ([15]; Postemergence, 31 g ai/ha): 0; Blackgrass plant response rating (0 to 100 scale) [15, 19]: 60; Ragweed plant response rating (0 to 100 scale) ([16]; Postemergence, 31 g ai/ha): 40; Ragweed plant response rating (0 to 100 scale) [16, 19]: 60; Pigweed plant response rating (0 to 100 scale) ([17]; Postemergence, 31 g ai/ha): 50; Pigweed plant response rating (0 to 100 scale) [17, 19]: 60; Wheat plant response rating (0 to 100 scale) ([18]; Postemergence, 31 g ai/ha): 0; Wheat plant response rating (0 to 100 scale) [18, 19]: 50; Corn plant response rating (0 to 100 scale) (corn (Zea mays); Postemergence, 31 g ai/ha): 0; Corn plant response rating (0 to 100 scale) (corn (Zea mays); [19]): 10 |
